Results taken from US20060069132A1, “Azolecarboxamide herbicides” (priority 2004, published 2006).

Tests used:
[1] = tested on: lambsquarters (CHEAL); experiment: Test J Compounds 2 and 6 alone and in combination with other herbicides, foliage spray; format: in vivo, Chenopodium album; design: key: % herbicidal effect (observed); conditions: applied alone
From the text: Colby's Equation was used to calculate the expected additive herbicidal effect of the mixtures of Compound 6 with Harmony® Extra (i.e. a 2:1 mixture by weight of thifensulfuron-methyl and tribenuron-methyl). […]
(§1) Seeds of test plants consisting of barnyardgrass (ECHCG; Echinochloa crus-galli (L.) Beauv.), blackgrass (ALOMY; Alopecurus myosuroides Huds.), Surinam grass (BRADC; Urochloa decumbens (Staph) R. D. Webster, previously named Brachiaria decumbens Stapf), cocklebur (XANST, Xanthium strumarium L.), corn (ZEAMD, Zea mays L. cv. ‘Pioneer 33G26’), large crabgrass (DIGSA, Digitaria sanguinalis (L.) Scop.), giant foxtail (SETFA, Setaria faberi Herrm.), lambsquarters (CHEAL, Chenopodium album L.), morningglory (IPOCO, Ipomoea coccinea L.), pigweed (AMARE, Amaranthus retroflexus L.), velvetleaf (ABUTH, Abutilon theophrasti Medik.) wheat (TRZAS, Triticum aestivum L. cv. ‘Recital’) and wild oat (AVEFA, Avena fatua L.) were planted in Redi-Earth® planting medium (Scotts Company, 14111 Scottslawn Road, Marysville, Ohio 43041) comprising spaghnum peat moss and vermiculite. […] Also listed in Table J are the expected effects for the mixtures calculated using Colby's Equation.

[2] = tested on: cocklebur (XANST); experiment: as above; format: in vivo, Xanthium strumarium; design: key: 0 = no effect, 100 = complete control; conditions: applied alone
From the text: as §1, with “vermiculite. Seeds of small-seeded species were planted about 1 cm deep; larger seeds were planted about 2.5 cm deep. Plants were grown in a greenhouse using supplemental lighting to maintain a photoperiod of about 14 hours; daytime and nighttime temperatures were about 24-30° C. and 22-25° C., respectively. Balanced fertilizer was applied through the watering system.” for “vermiculite.”

[3] = tested on: spotted spurge; experiment: Test E pre-/postemergence herbicide test; format: in vivo, Euphorbia maculata
From the text: Seeds of plant species selected from bipinnate beggarticks (Bidens bipinnata L.), hairy beggarticks (Bidens radiata Thuill.), bermudagrass (Cynodon dactylon (L.) Pers.), Surinam grass (Urochloa decumbens (Staph) R. D. Webster, previously named Brachiaria decumbens Stapf), large crabgrass (Digitaria sanguinalis (L.) Scop.), green foxtail (Setaria viridis (L.) P. Beauv.), goosegrass (Eleusine indica (L.) Gaertn.), johnsongrass (Sorghum halepense (L.) Pers.), kochia (Kochia scoparia (L.) Schrad.), pitted morningglory (Ipomoea lacunosa L.), purple nutsedge (Cyperus rotundus L.), common ragweed (Ambrosia elatior L.), mustard (Brassica nigra (L.) W. D. J. Koch), guineagrass (Panicum maximum Jacq.), dallisgrass (Paspalum dilatatum Poir.), barnyardgrass (Echinochloa crus-galli (L). P. Beauv.), southern sandbur (Cenchrus echinatus L.), common sowthistle (Sonchus oleraceous L.), prickly sida (Sida spinosa L.), Italian ryegrass (Lolium multiflorum Lam.), common purslane (Portulaca oleracea L.), broadleaf signalgrass (Brachiaria platyphylla (Griseb.) Nash), common groundsel (Senecio vulgaris L.), common chickweed (Stellaria media (L.) Vill/Cyr.), tropical spiderwort (Commelina benghalensis L.), annual bluegrass (Poa annua L.), downy bromegrass (Bromus tectorum L.), itchgrass (Rottboellia cochinchinensis (L.) L.f.), quackgrass (Elytrigia repens (L.) Nevski), Canada horseweed (Erigeron Canadensis L.), field bindweed (Convolvulus arvensis L.), spotted spurge (Euphorbia maculata L.), common mallow (Malva sylvestris (=s silvestris) L.), and Russian thistle (Salsola kali L. ssp. Ruthenica (Iljin) Soo) were planted and treated preemergence with test chemicals formulated in a non-phytotoxic solvent mixture which included a surfactant.
At the same time, plants selected from these weed species were treated with postemergence applications of some of the test chemicals formulated in the same manner. […] Treated plants and controls were maintained in a greenhouse for 12 to 14 days, after which time all species were compared to controls and visually evaluated. […]

| Structure (SMILES) | CHEAL Obsd. ([1]; 62 g a.i./ha) | CHEAL Obsd. ([1]; 125 g a.i./ha) | XANST Obsd. ([2]; 62 g a.i./ha) | XANST Obsd. ([2]; 125 g a.i./ha) | Plant response rating, Spurge, Spotted ([3]; Postemergence, 500 g ai/ha, scale 0 to 100) | Plant response rating, Spurge, Spotted ([3]; Preemergence, 125 g ai/ha, scale 0 to 100) | Plant response rating, Spurge, Spotted ([3]; Preemergence, 500 g ai/ha, scale 0 (no effect) to 100 (complete control)) |
| --- | --- | --- | --- | --- | --- | --- | --- |
| CCn1nc(C(C)(C)C)cc1C(=O)Nc1cc(C(=O)N(C)C)ccc1F [Compound 6, N-[5-[(dimethylamino)carbonyl]-2-fluorophenyl]-3-(1,1-dimethylethyl)-1-ethyl-1H-pyrazole-5-carboxamide] | 43 | 68 | 67 | 63 |  |  |  |
| CCNC(=O)c1ccnc(NC(=O)c2cc(C(C)(C)C)nn2CC)c1 [Compound 152] |  |  |  |  | 95 | 100 | 100 |
